Values of other authors in patent US20200138880A1, “BACTERIA-BASED GEL COMPOSITIONS FOR TOPICAL APPLICATIONS AND USES THEREOF” (PROBIOTICAL S.P.A., priority 2016, published 2020).

Settings: well known; free melatonin not bound to globulins

Structure (SMILES): COc1ccc2[nH]cc(CCNC(C)=O)c2c1 [melatonin]
- melatonin concentration in saliva as share of its plasma levels: 24%-33%
